Results from US20250144067A1, “PERSONALIZED STARVATION THERAPY FOR CANCER” (Faeth Therapeutics, Inc., priority 2021, published 2025).
Structures can show the parent of a compound that is named as a salt.

Key:
[1] = tested on: NCI-H292 lung cancer cells; experiment: FDA drug screening, complete media vs cholesterol-free media without statin (TABLE 1); type: cell-based, human
[2] = tested on: NCI-H292 lung cancer cells; experiment: FDA drug screening, complete media vs cholesterol-free media with simvastatin (TABLE 2); type: cell-based, human; settings: for Cholesterol-free media + simvastatin (0.04 μM) / Complete Media: NCI-H292 cells
[3] = NCI-H292 cells, cholesterol-free media without statin, FDA drug library screen
[4] = complete vs cholesterol-free media, >0 enhanced anti-cancer activity, about 0 neutral, <0 antagonist
[5] = cholesterol-free media with simvastatin 0.04 μM, FDA drug library screen (TABLE 2)
[6] = complete media, FDA drug library screen (TABLE 2)
[7] = complete media minus cholesterol-free media + simvastatin (0.04 μM), >0 enhanced anti-cancer activity, about 0 neutral, <0 antagonist
[8] = Complete minus Cholesterol-free, greater than 0 enhanced anti-cancer activity, about 0 neutral, below 0 antagonist
[9] = NCI-H292 cells, FDA drug library screen, cholesterol-free media without statin
[10] = NCI-H292 cells, FDA drug library screen, complete media
[11] = cholesterol-free media with simvastatin 0.04 μM, cell growth value in FDA drug screen
[12] = complete media, cell growth value in FDA drug screen
[13] = complete media minus cholesterol-free media + simvastatin, >0 enhanced anti-cancer activity, about 0 neutral, <0 antagonist
[14] = NCI-H292 cells in cholesterol-free media without statin
[15] = NCI-H292 cells in complete media
[16] = drug in cholesterol-free media with simvastatin 0.04 μM
[17] = complete media vs cholesterol-free media + simvastatin (0.04 μM), >0 enhanced anti-cancer activity, about 0 neutral, <0 antagonist
[18] = FDA drug library screen, cholesterol-free media with simvastatin 0.04 μM
[19] = Complete minus Cholesterol-free, >0 enhanced anti-cancer activity, about 0 neutral, <0 antagonist
[20] = NCI-H292 cells, cholesterol-free media without statin
[21] = NCI-H292 cells, complete media, FDA drug library screen
[22] = FDA library drug in cholesterol-free media with simvastatin 0.04 μM
[23] = FDA library drug in complete media
[24] = Complete minus Cholesterol-free, […]
[25] = complete media minus cholesterol-free media + simvastatin, […]
[26] = FDA drug library screen, complete media
[27] = complete vs cholesterol-free media, greater than 0 enhanced anti-cancer activity, about 0 neutral, below 0 antagonists

## O=C(O)Cc1ccccc1Nc1c(Cl)cccc1Cl [Diclofenac (diethylamine)]
[1]; [3]
  Cholesterol-free: 0.7838
[1]; [4]
  Difference: 0.36
[2]; [5]
  Cholesterol-free media + simvastatin (0.04 μM): 0.9893
[2]; [6]
  Complete Media: 0.9206
[2]; [7]
  Difference: −0.07

## CSCC[C@H](N)C(=O)O [L-Methionine]
[1]; [8]
  Difference: −0.12
[1]; [9]
  Cholesterol-free: 0.9015
[1]; [10]
  Complete: 0.7822
[2]; [11]
  Cholesterol-free media + simvastatin (0.04 μM): 0.8406
[2]; [12]
  Complete Media: 0.8869
[2]; [13]
  Difference: 0.05

## C[N+](C)(C)CC(=O)O [Betaine (hydrochloride)]
[1]; Complete minus Cholesterol-free, greater than 0 enhanced anti-cancer activity, about 0 neutral, below 0 antagonists
  Difference: −0.76
[1]; [14]
  Cholesterol-free: 1.594
[1]; [15]
  Complete: 0.8295
[2]; [16]
  Cholesterol-free media + simvastatin (0.04 μM): 1.292
[2]; drug in complete media
  Complete Media: 1.099
[2]; [17]
  Difference: −0.19

## O=C1OCCN1/N=C/c1ccc([N+](=O)[O-])o1 [Furazolidone]
[1]; [3]
  Cholesterol-free: 0.797
[1]; [4]
  Difference: 0.35
[2]; [5]
  Cholesterol-free media + simvastatin (0.04 μM): 0.938
[2]; [6]
  Complete Media: 0.9029
[2]; [7]
  Difference: −0.04

## CCCCCCCCCCCCCCCCCC(=O)O [Stearic acid]
[1]; [8]
  Difference: −0.14
[1]; [9]
  Cholesterol-free: 1.159
[1]; [10]
  Complete: 1.022
[2]; [18]
  Cholesterol-free media + simvastatin (0.04 μM): 1.741
[2]; [7]
  Difference: −1.08

## NC(=O)c1ccn(-c2cnc(NC[C@]3(c4ncccc4F)C[C@H](F)C3)nc2)c1 [Reldesemtiv]
[1]; [19]
  Difference: −0.25
[1]; [20]
  Cholesterol-free: 1.096
[1]; NCI-H292 cells, complete media
  Complete: 0.8441
[2]; [16]
  Cholesterol-free media + simvastatin (0.04 μM): 1.122
[2]; drug in complete media
  Complete Media: 0.9357
[2]; [17]
  Difference: −0.19

## COc1cccc(OC)c1C(=O)N[C@@H]1C(=O)N2[C@@H]1SC(C)(C)[C@@H]2C(=O)O [Methicillin (sodium salt)]
[1]; [19]
  Difference: −0.06
[1]; [3]
  Cholesterol-free: 1.114
[1]; [21]
  Complete: 1.051
[2]; [22]
  Cholesterol-free media + simvastatin (0.04 μM): 1.829
[2]; [23]
  Complete Media: 1.406
[2]; [17]
  Difference: −0.42

## Oritavancin (diphosphate)
[1]; [24]
  Difference: −0.64
[1]; [14]
  Cholesterol-free: 1.626
[1]; [15]
  Complete: 0.9877
[2]; [16]
  Cholesterol-free media + simvastatin (0.04 μM): 1.021
[2]; drug in complete media
  Complete Media: 0.8102
[2]; complete media vs cholesterol-free media + simvastatin (0.04 μM), […]
  Difference: −0.21

## Vitamin B12
[1]; [24]
  Difference: −0.19
[1]; NCI-H292 cells, complete media
  Complete: 0.9199
[2]; cholesterol-free media with simvastatin 0.04 μM, […]
  Cholesterol-free media + simvastatin (0.04 μM): 1.198
[2]; complete media, […]
  Complete Media: 1.289
[2]; [25]
  Difference: 0.09

## Terbutaline (sulfate)
[1]; [19]
  Difference: −0.29
[1]; [20]
  Cholesterol-free: 1.263
[1]; NCI-H292 cells, complete media
  Complete: 0.9738
[2]; [18]
  Cholesterol-free media + simvastatin (0.04 μM): 1.189
[2]; [17]
  Difference: −0.15

## CCOC(=O)/C=C(C)/C=C/C=C(C)/C=C/c1c(C)cc(OC)c(C)c1C [Etretinate]
[1]; [24]
  Difference: −0.71
[1]; [14]
  Cholesterol-free: 1.459
[1]; [15]
  Complete: 0.7469
[2]; [18]
  Cholesterol-free media + simvastatin (0.04 μM): 0.824
[2]; [26]
  Complete Media: 1.055
[2]; [25]
  Difference: 0.23

## COc1ccc2[nH]c([S+]([O-])Cc3ncc(C)c(OC)c3C)nc2c1 (centres unmarked) [Omeprazole]
[1]; [8]
  Difference: −0.12
[1]; [9]
  Cholesterol-free: 0.995
[1]; [10]
  Complete: 0.8798
[2]; [16]
  Cholesterol-free media + simvastatin (0.04 μM): 0.8585
[2]; drug in complete media
  Complete Media: 0.6883
[2]; [17]
  Difference: −0.17

## COC(=O)N[C@H](C(=O)N1CC2(CC2)C[C@H]1c1nc(-c2ccc3c(c2)C(F)(F)c2cc(-c4ccc5[nH]c([C@@H]6[C@H]7CC[C@H](C7)N6C(=O)[C@@H](NC(=O)OC)C(C)C)nc5c4)ccc2-3)c[nH]1)C(C)C [Ledipasvir]
[1]; [8]
  Difference: −0.17
[1]; [9]
  Cholesterol-free: 0.5821
[1]; [10]
  Complete: 0.4142
[2]; [22]
  Cholesterol-free media + simvastatin (0.04 μM): 1.189
[2]; [23]
  Complete Media: 0.6926
[2]; [17]
  Difference: −0.50

## OC[C@H]1OC(O)[C@H](O)[C@@H](O)[C@@H]1O (stereo partly drawn) [D-Glucose]
[1]; [19]
  Difference: −0.06
[1]; [3]
  Cholesterol-free: 0.3615
[1]; [21]
  Complete: 0.3017
[2]; [16]
  Cholesterol-free media + simvastatin (0.04 μM): 0.822
[2]; drug in complete media
  Complete Media: 0.5991
[2]; [17]
  Difference: −0.22

## CO[C@H]1/C=C/O[C@@]2(C)Oc3c(C)c(O)c4c(O)c(c(/C=N/N5CCN(C)CC5)c(O)c4c3C2=O)NC(=O)/C(C)=C\C=C\[C@H](C)[C@H](O)[C@@H](C)[C@@H](O)[C@@H](C)[C@H](OC(C)=O)[C@@H]1C [Rifampicin]
[1]; [3]
  Cholesterol-free: 0.7396
[1]; [21]
  Complete: 1.143
[1]; [4]
  Difference: 0.40
[2]; [22]
  Cholesterol-free media + simvastatin (0.04 μM): 1.219
[2]; [23]
  Complete Media: 0.8641
[2]; [17]
  Difference: −0.36

## Rilmenidine (phosphate)
[1]; [24]
  Difference: 0.01
[1]; [3]
  Cholesterol-free: 0.9893
[1]; [21]
  Complete: 0.995
[2]; [5]
  Cholesterol-free media + simvastatin (0.04 μM): 1.249
[2]; [6]
  Complete Media: 1.215
[2]; complete media minus cholesterol-free media + simvastatin (0.04 μM), […]
  Difference: −0.03

## CCOc1ccccc1OCCN[C@H](C)Cc1ccc(OC)c(S(N)(=O)=O)c1 [Tamsulosin]
[1]; [8]
  Difference: −0.14
[1]; [9]
  Cholesterol-free: 1.006
[1]; [10]
  Complete: 0.8695
[2]; [16]
  Cholesterol-free media + simvastatin (0.04 μM): 1.361
[2]; drug in complete media
  Complete Media: 1.178
[2]; [17]
  Difference: −0.18

## N#Cc1cc(-c2n[nH]c(-c3ccncc3)n2)ccn1 [Topiroxostat]
[1]; [3]
  Cholesterol-free: 0.764
[1]; [21]
  Complete: 1.603
[1]; [4]
  Difference: 0.84
[2]; [5]
  Cholesterol-free media + simvastatin (0.04 μM): 1.544
[2]; [6]
  Complete Media: 1.543
[2]; [7]
  Difference: 0.00

## N#Cc1ccc(C(c2ccc(C#N)cc2)n2cncn2)cc1 [Letrozole]
[1]; [20]
  Cholesterol-free: 1.334
[1]; NCI-H292 cells, complete media
  Complete: 1.012
[1]; [27]
  Difference: −0.32
[2]; [22]
  Cholesterol-free media + simvastatin (0.04 μM): 1.67
[2]; [23]
  Complete Media: 1.21
[2]; [17]
  Difference: −0.46

## CC(=O)[C@@]1(O)CC[C@H]2[C@@H]3C[C@H](C)C4=CC(=O)C=C[C@]4(C)[C@@]3(F)[C@@H](O)C[C@@]21C [Fluorometholone]
[1]; [8]
  Difference: −0.08
[1]; [9]
  Cholesterol-free: 1.249
[2]; [16]
  Cholesterol-free media + simvastatin (0.04 μM): 0.7423
[2]; drug in complete media
  Complete Media: 0.5602
[2]; [17]
  Difference: −0.18

## NC(=O)C[C@H](N)C(=O)O [L-Asparagine]
[1]; [19]
  Difference: −0.27
[1]; [20]
  Cholesterol-free: 1.71
[1]; NCI-H292 cells, complete media
  Complete: 1.437
[2]; [11]
  Cholesterol-free media + simvastatin (0.04 μM): 0.6588
[2]; [12]
  Complete Media: 0.704
[2]; [13]
  Difference: 0.05

## O=C(Nc1ccc([N+](=O)[O-])cc1Cl)c1cc(Cl)ccc1O [Niclosamide]
[1]; [20]
  Cholesterol-free: 0.9593
[1]; NCI-H292 cells, complete media
  Complete: 0.6271
[1]; [27]
  Difference: −0.33
[2]; [18]
  Cholesterol-free media + simvastatin (0.04 μM): 0.365
[2]; [26]
  Complete Media: 1.031
[2]; [13]
  Difference: 0.67

## Rucaparib (phosphate)
[1]; [3]
  Cholesterol-free: 0.6538
[1]; [21]
  Complete: 0.9448
[1]; [4]
  Difference: 0.29
[2]; [6]
  Complete Media: 1.39
[2]; [7]
  Difference: −0.02

## CN(Cc1ccc(C(C)(C)C)cc1)Cc1cccc2ccccc12 [Butenafine (Hydrochloride)]
[1]; [20]
  Cholesterol-free: 1.694
[1]; NCI-H292 cells, complete media
  Complete: 1.364
[1]; [27]
  Difference: −0.33
[2]; [5]
  Cholesterol-free media + simvastatin (0.04 μM): 1.078
[2]; [6]
  Complete Media: 1.061
[2]; [7]
  Difference: −0.02
